Binding % data for 18 compounds are collected here from patent publication US10736897B2, “Compounds and methods of use thereof for treatment of cancer” (Araxes Pharma LLC, priority 2017, dated 2020).

This assay deals with T1, KRAS G12C 1-169, his-tagged protein, GDP-loaded (Homo sapiens, UniProt P01116, G12C).
T1 construct: KRAS G12C 1-169, his-tagged protein, GDP-loaded; His tag
In words: Biochemical assay: covalent modification of KRAS G12C measured by mass spectrometry (RapidFire/TOF or Q-Exactive). The assay is classed as binding. Particulars: Modification Activity; modification percentage from deconvoluted MS peak intensities; compound concentration and incubation time for Table 2 not stated. As to the method: Test compounds are prepared as 10 mM stock solutions in DMSO (Fisher cat # BP-231-100). KRAS G12C 1-169, his-tagged protein, GDP-loaded is diluted to 2 μM or 0.5 μM in buffer (20 mM Hepes, 150 mM NaCl, 1 mM MgCl2). Compounds are tested for activity as follows:
Compounds are diluted to 50× final test concentration in DMSO in 96-well storage plates. Compound stock solutions are vortexed before use and observed carefully for any sign of precipitation. Dilutions are as follow: • For 100 μM final compound concentration, compounds are diluted to 5000 μM (5 μL 10 mM compound stock+5 μL DMSO and mixed well by pipetting. • For 30 μM final compound concentration, compounds are diluted to 1500 μM (3 μL 10 mM compound stock+17 μL DMSO) and mixed well by pipetting. • For 10 μM final compound concentration, compounds are diluted to 500 μM (2 μL 10 mM compound stock+38 μL DMSO) and mixed well by pipetting. 49 μL of the stock protein solution is added to each well of a 96-well PCR plate (Fisher cat #1423027). 1 μl of the diluted 50× compounds are added to appropriate wells in the PCR plate using 12-channel pipettor. Reactions are mixed carefully and thoroughly by pipetting up/down with a 200 μL multi-channel pipettor. The plate is sealed well with aluminum plate seal, and stored in drawer at room temperature for 10 minutes, 30 minutes, 2 hours or 24 hours. 5 μL of 2% formic acid (Fisher cat # A117) in de-ionized H2O is then added to each well followed by mixing with a pipette. The plate is then resealed with aluminum seal and stored on dry ice until analyzed as described below.
The above described assays are analyzed by mass spectrometry according to one of the following two procedures:
The MS instrument is set to positive polarity, 2 GHz resolution, and low mass (1700) mode and allowed to equilibrate for 30 minutes. The instrument is then calibrated, switched to acquisition mode and the appropriate method loaded.
After another 30 minute equilibration time, a blank batch (i.e., buffer) is run to ensure equipment is operating properly. The samples are thawed at 37° C. for 10 minutes, briefly centrifuged, and transfer to the bench top. Wells A1 and H12 are spiked with 1 μL 500 μM internal standard peptide, and the plates centrifuged at 2000×g for 5 minutes. The method is then run and masses of each individual well recorded.
The masses (for which integration data is desired) for each well are pasted into the platemap and exported from the analysis. Masses for the internal standards are exported as well. The data at 50 ppm is extracted for the +19 charge state, and identity of well A1 is assigned using the internal standard spike and integrated. Peak data is exported as a TOF list and the above steps are repeated individually, for the +20, 21, 22, 23, 24, and 25 charge states.
The masses and peak intensities of KRAS G12C protein species are measured using a Dionex RSLCnano system (Thermo Scientific) connected to a Q Exactive Plus mass spectrometer (Thermo Scientific).
[…] of sample is each loaded onto a Aeris™ 3.6 μm WIDEPORE C4 200 Å, LC Column 50×2.1 mm column maintained at 40° C. at a flow rate of 600 μL/min with […] (0.1% formic acid in acetonitrile). The liquid chromatography conditions are 20% solvent B for 1 minute, 20% to 60% solvent B for 1.5 minutes, 60% to 90% solvent for 0.5 minute, 90% solvent B for 0.2 minute, 90% to 20% solvent B for 0.2 minute, and then equilibrated for 1.6 minute before the following sample injection. The flow rate is maintained at 600 μL/min throughout the sample analysis.
The mass spectrometer is operated in profile mode at a resolution of 17500, 5 microscans, using 50 msec max injection time and an AGC target of 1×10^6, and a full mass range from 800-1850 m/z is recorded. The HCD trapping gas is optimized for maximum sensitivity for intact proteins. […]

With `C=CC(=O)N1C[C@H](C)N(c2ncnc3c(F)c(-c4c(C)ccc5[nH]nc(N)c45)c(Cl)cc23)C[C@H]1C` [Compound 5, 1-((2R,5S)-4-((R)-7-(3-amino-5-methyl-1H-indazol-4-yl)-6-chloro-8-fluoroquinazolin-4-yl)-2,5-dimethylpiperazin-1-yl)prop-2-en-1-one], the Binding % result is listed as “++ (++ indicates binding activity from 50 to 85%)”.
As for `C=CC(=O)N1C[C@H](C)N(c2ncnc3c(F)c(-c4c(C)ccc5[nH]nc(N)c45)c(Cl)cc23)C[C@H]1C` [Compound 6, 1-((2R,5S)-4-((S)-7-(3-amino-5-methyl-1H-indazol-4-yl)-6-chloro-8-fluoroquinazolin-4-yl)-2,5-dimethylpiperazin-1-yl)prop-2-en-1-one], the Binding % entry was “+ (+ indicates binding activity greater than 0% and up to 50%)”.
Next, `C=CC(=O)N1CCN(c2cnnc3cc(-c4c(C)ccc5[nH]nc(C6CC6)c45)c(Cl)cc23)CC1` [Compound 18, 1-(4-(6-chloro-7-(3-cyclopropyl-5-methyl-1H-indazol-4-yl)cinnolin-4-yl)piperazin-1-yl)prop-2-en-1-one]: “+ (+ indicates binding activity greater than 0% and up to 50%)”; `C=CC(=O)N1C[C@H](C)N(c2ncnc3c(F)c(-c4c(C)ccc5cnn(C)c45)c(Cl)cc23)C[C@H]1C` (atropisomer, axis not shown) [Compound 8, 1-((2R,5S)-4-((R)-6-chloro-7-(1,6-dimethyl-1H-indazol-7-yl)-8-fluoroquinazolin-4-yl)-2,5-dimethylpiperazin-1-yl)prop-2-en-1-one]: “+++ (+++ indicates binding activity greater than 85%)”.
The entry for `C=CC(=O)N1CCN(c2c(C#N)cnc3c(F)c(-c4c(C)ccc5[nH]nc(C6CC6)c45)c(Cl)cc23)CC1` [Compound 13, 4-(4-acryloylpiperazin-1-yl)-6-chloro-7-(3-cyclopropyl-5-methyl-1H-indazol-4-yl)-8-fluoroquinoline-3-carbonitrile] is “+++ (+++ indicates binding activity greater than 85%)”; for `C=CC(=O)N1CCN(c2cc(C(F)(F)F)nc3c(F)c(-c4c(C)ccc5[nH]nc(C)c45)c(Cl)cc23)CC1` [Compound 25, 1-(4-(6-chloro-7-(3,5-dimethyl-1H-indazol-4-yl)-8-fluoro-2-(trifluoromethyl)quino-lin-4-yl)piperazin-1-yl)prop-2-en-1-one] it is “+ (+ indicates binding activity greater than 0% and up to 50%)”.
As for `C=CC(=O)N1CCN(c2cnnc3cc(-c4c(C)ccc5cnn(C)c45)c(Cl)cc23)CC1` [Compound 15, 1-(4-(6-chloro-7-(1,6-dimethyl-1H-indazol-7-yl)cinnolin-4-yl)piperazin-1-yl)prop-2-en-1-one], the Binding % entry was “+ (+ indicates binding activity greater than 0% and up to 50%)”.
The entry for `C=CC(=O)N1CCN(c2c(C#N)cnc3c(F)c(-c4c(C)ccc5cnn(C6CC6)c45)c(Cl)cc23)CC1` [Compound 14, 4-(4-acryloylpiperazin-1-yl)-6-chloro-7-(1-cyclopropyl-6-methyl-1H-indazol-7-yl)-8-fluoroquinoline-3-carbonitrile] is “+++ (+++ indicates binding activity greater than 85%)”; for `C=CC(=O)N1CCN(c2cc(C#N)nc3c(F)c(-c4c(C)ccc5cnn(C)c45)c(Cl)cc23)CC1` [Compound 28, 4-(4-acryloylpiperazin-1-yl)-6-chloro-7-(1,6-dimethyl-1H-indazol-7-yl)-8-fluoroquinoline-2-carbonitrile] it is “+++ (+++ indicates binding activity greater than 85%)”; for `C=CC(=O)N1CCN(c2c(C#N)cnc3c(F)c(-c4c(C)ccc5[nH]nc(C)c45)c(Cl)cc23)CC1CC#N` (stereo not drawn) [Compound 30, 4-(4-acryloyl-3-(cyanomethyl)piperazin-1-yl)-6-chloro-7-(3,5-dimethyl-1H-indazol-4-yl)-8-fluoroquinoline-3-carbonitrile] it is “+++ (+++ indicates binding activity greater than 85%)”.
`C=CC(=O)N1C[C@H](C)N(c2c(C#N)cnc3c(F)c(-c4c(C)ccc5[nH]nc(C)c45)c(Cl)cc23)C[C@H]1C` [Compound 21, 4-((2S,5R)-4-acryloyl-2,5-dimethylpiperazin-1-yl)-6-chloro-7-(3,5-dimethyl-1H-indazol-4-yl)-8-fluoroquinoline-3-carbonitrile]: the Binding % result is “+ (+ indicates binding activity greater than 0% and up to 50%)”.
For `C=CC(=O)N1C[C@H](C)N(c2c(C#N)cnc3c(F)c(-c4c(C)ccc5cnn(C)c45)c(Cl)cc23)C[C@H]1C` [Compound 19, 4-((2S,5R)-4-acryloyl-2,5-dimethylpiperazin-1-yl)-6-chloro-7-(1,6-dimethyl-1H-indazol-7-yl)-8-fluoroquinoline-3-carbonitrile], the Binding % result is “+ (+ indicates binding activity greater than 0% and up to 50%)”.
`C=CC(=O)N1[C@H](C)CN(c2c(C#N)cnc3c(F)c(-c4c(C)ccc5cnn(C)c45)c(Cl)cc23)C[C@@H]1C` [Compound 22, 4-((3S,5R)-4-acryloyl-3,5-dimethylpiperazin-1-yl)-6-chloro-7-(1,6-dimethyl-1H-indazol-7-yl)-8-fluoroquinoline-3-carbonitrile]: the Binding % result is on record as “++ (++ indicates binding activity from 50 to 85%)”.
As for `C=CC(=O)N1CCN(c2c(C#N)cnc3c(F)c(-c4c(C)ccc5cnn(C)c45)c(Cl)cc23)CC1` [Compound 11, 4-(4-acryloylpiperazin-1-yl)-6-chloro-7-(1,6-dimethyl-1H-indazol-7-yl)-8-fluoroquinoline-3-carbonitrile], the Binding % entry is “+++ (+++ indicates binding activity greater than 85%)”.
Next, `C=CC(=O)N1[C@H](C)CN(c2ncnc3c(F)c(-c4c(C)ccc5cnn(C)c45)c(Cl)cc23)C[C@@H]1C` (atropisomer, axis not shown) [Compound 10, 1-((2S,6R)-4-((R)-6-chloro-7-(1,6-dimethyl-1H-indazol-7-yl)-8-fluoroquinazolin-4-yl)-2,6-dimethylpiperazin-1-yl)prop-2-en-1-one]: “++ (++ indicates binding activity from 50 to 85%)”.
Next, `C=CC(=O)N1C[C@H](C)N(c2c(C#N)cnc3c(F)c(-c4c(C)ccc5cnn(C6CC6)c45)c(Cl)cc23)C[C@H]1C` [Compound 20, 4-((2S,5R)-4-acryloyl-2,5-dimethylpiperazin-1-yl)-6-chloro-7-(1-cyclopropyl-6-methyl-1H-indazol-7-yl)-8-fluoroquinoline-3-carbonitrile]: “+ (+ indicates binding activity greater than 0% and up to 50%)”; `C=CC(=O)N1CCN(c2cnnc3cc(-c4c(C)ccc5cnn(C6CC6)c45)c(Cl)cc23)CC1` [Compound 16, 1-(4-(6-chloro-7-(1-cyclopropyl-6-methyl-1H-indazol-7-yl)cinnolin-4-yl)piperazin-1-yl)prop-2-en-1-one]: “+ (+ indicates binding activity greater than 0% and up to 50%)”; `C=CC(=O)N1CCN(c2cnnc3cc(-c4c(C)ccc5[nH]nc(C)c45)c(Cl)cc23)CC1` [Compound 17, 1-(4-(6-chloro-7-(3,5-dimethyl-1H-indazol-4-yl)cinnolin-4-yl)piperazin-1-yl)prop-2-en-1-one]: “+ (+ indicates binding activity greater than 0% and up to 50%)”.
